Data from patent US10058611B2, “Use of α-(8-quinolinyloxy) mono-substituted phthalocyanine zinc for treatment of psoriasis” (BEIJING GUIQIANJIN MEDICAL SCIENCE AND TECHNOLOGY CO., LTD., priority 2014, dated 2018).

Tests used:
HaCaT cells = test: Proliferation inhibition of HaCaT cells after 670 nm irradiation (MTT); assay type: cell-based, human
Method: HaCaT cell line, a cell line of normally mutated and immortalized human keratinocyte, is one of the most wildly used cell models for the currently study of psoriasis. As compared with primary cultured keratinocytes, HaCaT cells have similar biological properties, but its operation is simpler.
HaCaT cells were routinely cultured in RPMI-1640 medium containing 10% fetal bovine serum at 37° C. in a 5% CO2 incubator. The cells were harvested in logarithmic growth phase, digested with 0.25% trypsin (containing EDTA), adjusted to a cell density of 2×10^5 cells/mL and seeded in a 96-well plate, 100 μL per each well; after incubation for 24 hours, α-(8-quinolinyloxy) mono-substituted phthalocyanine zinc was added at concentrations of 0.001 μg/mL, 0.01 μg/mL, 0.1 μg/mL, 1 μg/mL and 10 μg/mL respectively and three complex wells were set for each concentration. […] The culture medium was discarded; 200 μL of MTT solution (0.5 mg/mL) was added to each well; the cells were incubated for additional 4 hours; then, 200 μL of dimethyl sulfoxide was added to each well and the absorbance value of each well was measured by a microplate reader at 545 nm (reference wavelength: 450 nm). 3 times of parallel measurements were conducted and the mean value was calculated. The inhibition rate of proliferation was calculated and IC50 was calculated by Bliss method.

[1] = system: propranolol-induced psoriasis-like lesions; test: Propranolol-induced psoriasis-like lesions on guinea pig ears (PDT, histology); assay type: in vivo
From the text: Propranolol is a β-adrenergic receptor blocking agent, and it may be applied to guinea pig skin to block the β-adrenergic receptor in keratinocytes and thereby reducing the intracellular cAMP level, leading to histopathological changes similar to psoriasis such as hyperkeratosis, parakeratosis and acanthosis of animal epidermis, which are the same as human psoriatic lesions at the molecular level. Application of propranolol to ear skin of guinea pig to replicate a psoriasis-like skin model is often used for observing the therapeutic effect of a drug on psoriasis.
Preparation method for 5% propranolol liniment: dissolving 5 g powder of propranolol API in 50 mL of 50% ethanol, adding 5 g of polyoxyethylene pyrrolidone 30, 2.5 mL of azone, 2.5 mL of propylene glycol, and finally adding 50% ethanol to 100 mL. 5% propranolol was prepared fresh for use. Forty-two guinea pigs were randomly divided into a blank control group and a model-establishing group according to weights, 6 guinea pigs in the blank control group and 36 guinea pigs in the model-establishing group. 5% propranolol was applied uniformly on the back of both ears of guinea pigs in the model-establishing group at a dose of 0.1 mL/ear, once in the morning and once in the afternoon, and the administration lasted for continuous 4 weeks. After the model was established, the guinea pigs in the model-establishing group were randomly divided into 6 groups according to weights again, 6 guinea pigs in each group. The 6 groups were model control group, irradiation without administration group, administration without irradiation group, injection administration group and topical administration groups 1 and 2, respectively. The administration without irradiation group and the injection administration group were intravenously injected with α-(8-quinolinyloxy) mono-substituted phthalocyanine zinc solution at a dose of 0.45 mg/kg and the topical administration groups 1 and 2 were respectively applied with 5% and 1% α-(8-quinolinyloxy) mono-substituted phthalocyanine zinc liniments at a dose of 0.1 mL/ear. […] were not administrated. After protection from light for 24 hours, the irradiation without administration group, the injection administration group and the topical administration groups 1 and 2 were subjected to laser irradiation by using a semiconductor photodynamic therapeutic instrument with the following irradiation conditions: output power, 1,000 mW; spot diameter, 6 cm; irradiation time, 399 s; irradiation dose, 14 J/cm^2. After irradiation, animals were protected from light for 48 hours, and then recovered for 3 days. A photodynamic therapy (administration, irradiation, protection from light and recovery) was repeated once according to the abovementioned steps. […]

[2] = system: mouse vaginal epithelial cells; test: Diethylstilbestrol-induced excessive proliferation of mouse vaginal epithelial cells (PDT, mitotic index); assay type: in vivo, ICR mice; conditions: for Mitotic Index: x ± s, n = 10
From the text: Estrogen (for example diethylstilbestrol) may induce the active proliferation of mouse vaginal epithelial cells, thereby accelerating the turnover of epithelial cells; and colchicine may make the cell cycle stagnated in the mitotic metaphase and then the inhibition effects of a test substance on mitosis and excessive cell proliferation may be observed. This model may simulate the characteristic of overly rapid proliferation of epithelial cells in psoriasis patients, is simple and easy to obtain, and is one of the most common animal models in the assessment of drug efficacy for psoriasis.
Sixty ICR mice were taken and randomly divided into 6 groups according to weights: blank control group, model control group, irradiation without administration group and PDT groups 1, 2 and 3. Except for the blank control group, all of other groups were intraperitoneally injected with diethylstilbestrol (0.2 mg/mouse), once-daily for 3 days. […] After protection from light for 6 hours, the PDT groups 1, 2 and 3 and the irradiation without administration group were subjected to laser irradiation by using a semiconductor photodynamic therapeutic instrument; the irradiation conditions were 100 mW×540 s, 300 mW×60 s, 100 mW×60 s and 300 mW×540 s, respectively; the spot diameter was 3 cm; and the abdomen of mice was irradiated. The blank control group and the model control group were not subjected to irradiation. After one week post-irradiation, mice of each group were intraperitoneally injected with colchicine at a dose of 2 mg/kg, making the cell mitosis stagnated in the mitotic metaphase. After 4 hours post-injection of colchicine, animals were sacrificed by anesthesia. Mouse vagina was taken, fixed in 10% formaldehyde solution, conventionally dehydrated, embedded in paraffin, sliced and stained with HE; 300 basal cells were counted under a microscope and the number of mitotic cells was calculated and the mitotic index was calculated (number of mitotic cells per 100 basal cells).

For “α-(8-quinolinyloxy) mono-substituted phthalocyanine zinc”, the “Proliferation of HaCaT cells (result in words)” value (HaCaT cells; 0.001-10 μg/mL, 670 nm irradiation) was “inhibit the proliferation of HaCaT cells in a concentration-dependent manner”, the “IC50, inhibition of proliferation of HaCaT cells” value (HaCaT cells; 4 h incubation, 670 nm irradiation 1500 mW, spot 8 cm, 180 s, MTT 48 h after irradiation, Bliss method) was 0.197 ± 0.022 µg/mL and the “Psoriasis-like lesions of the guinea pig ear (result in words)” value (“Psoriasis-like lesions” for short) ([1]; administration without irradiation group: 0.45 mg/kg i.v., no laser) was “improved to some extent but not obviously”. The “Psoriasis-like lesions” value ([1]; injection administration group: 0.45 mg/kg i.v., laser 1,000 mW, 399 s, 14 J/cm^2, two photodynamic therapies) was “improved significantly”, the “Psoriasis-like lesions” value ([1]; topical administration group 1: 5% liniment 0.1 mL/ear, laser 1,000 mW, 399 s, 14 J/cm^2, two photodynamic therapies) was “improved significantly” and the “Psoriasis-like lesions” value ([1]; topical administration group 2: 1% liniment 0.1 mL/ear, laser 1,000 mW, 399 s, 14 J/cm^2, two photodynamic therapies) was “improved significantly”. The “Mitotic Index” value ([2]; PDT group 1: dose 2 mg/kg i.p., irradiation 540 s, 100 mW) was 6.4 ± 2.2^##^ %, the “Mitotic Index” value ([2]; PDT group 2: dose 1 mg/kg i.p., irradiation 60 s, 300 mW) was 7.2 ± 2.6 % and the “Mitotic Index” value ([2]; PDT group 3: dose 0.5 mg/kg i.p., irradiation 60 s, 100 mW) was 10.3 ± 4.3 %. The “Mitotic index compared with the model control group (result in words)” value ([2]; PDT groups 1, 2 and 3) was “significantly reduced”.
